# From patent US11584744B2 (UNIVERSITY OF WASHINGTON, priority 2017, dated 2023)
# Read-outs that look alike come from different tables or passages of the source.
# Columns and labels:
# T. cruzi = T. cruzi growth inhibition; type: cell-based, Trypanosoma cruzi; settings: read-out: (E) T. cruzi EC50
# [1] = system: S. aureus MSSA (ATCC 29213); assay: MIC susceptibility testing; type: cell-based, Staphylococcus aureus; settings: S. aureus ATCC 29213; for MIC: Staphylococcus aureus, read-out: (F) S. aureus (ATCC 29213) MIC
# Text: Media and culture conditions. Mueller Hinton broth (MHB), cation adjusted Mueller Hinton broth (CA-MHB), and Brain Heart Infusion broth (BHI) were purchased from Becton Dickinson (Franklin Lakes, N.J.). Tryptic soy agar (TSA) plates, TSA with 5% sheep blood plates, and CA-MHB with 3% laked horse blood were purchased from Remel (San Diego, Calif.). MHB was used to assay all Staphylococcus aureus strains. CA-MHB was used for Staphylococcus epidermidis, Enterococcus faecalis, Enterococcus faecium, Escherichia coli, and Pseudomonas aeruginosa. CA-MHB supplemented with 3% laked horse blood was used for Streptococcus pneumoniae and Streptococcus pyogenes. Staphylococcus, Enterococcus, Escherichia, and Pseudomonas strains were cultured at 37° C. with ambient air. Streptococcus strains were cultured in 37° C. with 5% CO2. Separate conditions for radiolabeled precursor uptake assays are described below.
# Susceptibility testing: Minimum inhibitory concentration (MIC) determinations were performed in triplicate in 96-well round bottom microtiter plates (Corning, Corning N.Y.) as described by the Clinical and Laboratory Standards Institute (CLSI). Serial two-fold dilutions of compounds were added to plates in 50 μL volumes. An additional 50 μL of media containing bacterial cells (1×10^6 CFUs/mL) was then added to each well. Maximum DMSO concentrations were 0.5%. Plates were incubated at 37° C. for at least 18 h before reading the susceptibility result by optical absorbance (OD600) using a BioTek ELx800. The lowest concentration causing ≥90% growth inhibition compared to the untreated control was recorded as the MIC (and also corresponded to the visual MIC). MICs were measured at least twice and the higher value (if different) was recorded herein.
# MetRS (T. brucei) = biological target: T1, MetRS (T. brucei) (Trypanosoma brucei brucei, UniProt Q38C91); assay: MetRS (T. brucei) enzyme inhibition; type: biochemical
# T1 sequence (Q38C91 1-773): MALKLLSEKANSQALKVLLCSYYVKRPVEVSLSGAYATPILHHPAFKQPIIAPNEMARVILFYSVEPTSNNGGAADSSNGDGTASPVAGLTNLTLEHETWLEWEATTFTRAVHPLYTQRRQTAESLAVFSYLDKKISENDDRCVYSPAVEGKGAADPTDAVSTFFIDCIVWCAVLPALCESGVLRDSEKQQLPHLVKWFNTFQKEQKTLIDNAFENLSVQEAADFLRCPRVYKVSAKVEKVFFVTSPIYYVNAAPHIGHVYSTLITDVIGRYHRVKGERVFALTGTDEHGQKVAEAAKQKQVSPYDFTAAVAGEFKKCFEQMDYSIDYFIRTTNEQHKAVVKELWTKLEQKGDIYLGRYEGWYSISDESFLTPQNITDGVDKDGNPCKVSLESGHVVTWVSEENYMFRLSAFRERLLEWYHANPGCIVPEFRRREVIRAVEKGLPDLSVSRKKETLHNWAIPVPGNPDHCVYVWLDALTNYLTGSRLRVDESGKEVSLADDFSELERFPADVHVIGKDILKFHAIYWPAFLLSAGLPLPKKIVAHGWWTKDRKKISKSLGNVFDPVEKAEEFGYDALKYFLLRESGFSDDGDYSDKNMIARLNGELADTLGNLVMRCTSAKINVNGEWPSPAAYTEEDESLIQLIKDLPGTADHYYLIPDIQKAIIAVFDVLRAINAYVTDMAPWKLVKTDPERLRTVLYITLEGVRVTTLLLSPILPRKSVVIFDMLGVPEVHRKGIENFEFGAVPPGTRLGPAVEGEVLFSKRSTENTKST
# MetRS (C. parvum) = MetRS (C. parvum) (Cryptosporidium parvum, UniProt Q5CVN0); assay: MetRS (C. parvum) enzyme inhibition; type: biochemical; settings: read-out: (C) MetRS (C. parvum) IC50
# T. brucei = T. brucei growth inhibition; type: cell-based, Trypanosoma brucei; settings: read-out: (D) T. brucei EC50
# C. parvum = C. parvum growth inhibition; type: cell-based, Cryptosporidium parvum; settings: read-out: (J) C. parvum EC50
# Chain of MetRS (C. parvum) (Q5CVN0 entry or part of it): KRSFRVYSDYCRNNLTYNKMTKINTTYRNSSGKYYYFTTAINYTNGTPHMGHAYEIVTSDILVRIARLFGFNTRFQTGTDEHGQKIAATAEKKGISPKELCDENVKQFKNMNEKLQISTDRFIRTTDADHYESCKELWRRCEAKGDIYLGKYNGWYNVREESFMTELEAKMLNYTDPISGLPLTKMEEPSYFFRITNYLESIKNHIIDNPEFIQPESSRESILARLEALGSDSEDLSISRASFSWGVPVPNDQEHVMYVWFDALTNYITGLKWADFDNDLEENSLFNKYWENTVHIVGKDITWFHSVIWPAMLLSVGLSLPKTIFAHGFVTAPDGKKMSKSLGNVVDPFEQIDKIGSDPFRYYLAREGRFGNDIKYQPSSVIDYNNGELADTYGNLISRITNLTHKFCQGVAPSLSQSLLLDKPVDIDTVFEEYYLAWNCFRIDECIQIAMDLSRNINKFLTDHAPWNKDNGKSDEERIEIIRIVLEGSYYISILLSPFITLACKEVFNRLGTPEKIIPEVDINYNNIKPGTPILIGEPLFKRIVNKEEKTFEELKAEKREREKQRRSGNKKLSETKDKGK
EC50 (T. cruzi; Trypanosoma cruzi),MIC [1],IC50 (MetRS (T. brucei)),IC50 (MetRS (C. parvum)),EC50 (T. brucei; Trypanosoma brucei),(F) S. aureus (ATCC 29213) MIC [1],EC50 (C. parvum; Cryptosporidium parvum),EC50 (T. cruzi),EC50 (C. parvum),EC50 (T. brucei),SMILES
438 nM,1.33 µg/mL,< 40 nM,< 40 nM,,,,,,,"O=c1n(Cc2nc3ccc(F)nc3[nH]2)cc(Cc2ccc(Cl)cc2Cl)n1C1CCCC1 [Compound 2081, 3-cyclopentyl-4-[(2,4-dichlorophenyl)methyl]-1-({5-fluoro-1H-imidazo[4,5-b]pyridin-2-yl}methyl)-2,3-dihydro-1H-imidazol-2-one]"
608 nM,2.04 µg/mL,< 40 nM,< 40 nM,,,,,,,"CC(C)(C)n1c(Cc2ccc(Cl)cc2Cl)cn(Cc2nc3ccc(F)nc3[nH]2)c1=O [Compound 2084, 3-tert-butyl-4-[(2,4-dichlorophenyl)methyl]-1-({5-fluoro-1H-imidazo[4,5-b]pyridin-2-yl}methyl)-2,3-dihydro-1H-imidazol-2-one]"
502 nM,> 2.5 µg/mL,< 40 nM,47.5 nM,,,,,,,"CCn1c(Cc2ccc(Cl)cc2Cl)cn(Cc2nc3ccc(C)nc3[nH]2)c1=O [Compound 2092, 4-[(2,4-dichlorophenyl)methyl]-3-ethyl-1-({5-methyl-1H-imidazo[4,5-b]pyridin-2-yl}methyl)-2,3-dihydro-1H-imidazol-2-one]"
647 nM,,< 40 nM,42.1 nM,84 nM,,,,,,"CCNC(=O)Nc1ccc(-c2ccc(OC)cc2Cl)n2cc(Cc3nc4ccc(Cl)cc4[nH]3)nc12 [Compound 2182, 1-{2-[(6-chloro-1H-1,3-benzodiazol-2-yl)methyl]-5-(2-chloro-4-methoxyphenyl)imidazo[1,2-a]pyridin-8-yl}-3-ethylurea]"
360 nM,3.8 µg/mL,59 nM,49.2 nM,25 nM,3.21 µg/mL,,,,,"COc1ccc(-c2cnc(NC(C)=O)c3nc(Cc4nc5nc(Cl)ccc5[nH]4)cn23)c(Cl)c1 [Compound 2186, N-[2-({5-chloro-1H-imidazo[4,5-b]pyridin-2-yl}methyl)-5-(2-chloro-4-methoxyphenyl)imidazo[1,2-a]pyrazin-8-yl]acetamide]"
2710 nM,> 10 µg/mL,55 nM,213 nM,45.3 nM,13.2 µg/mL,,,,,"O=c1[nH]c(C(O)c2ccc(Cl)cc2Cl)cn1Cc1nc2nc(Cl)ccc2[nH]1 (stereo not shown) [Compound 2202, 1-({5-chloro-1H-imidazo[4,5-b]pyridin-2-yl}methyl)-4-[(2,4-dichlorophenyl)(hydroxy)methyl]-2,3-dihydro-1H-imidazol-2-one]"
> 5000 nM,,< 40 nM,40.1 nM,718 nM,,,,,,"O=C(O)Cn1c(C(O)c2ccc(Cl)cc2Cl)cn(Cc2nc3ccc(Cl)nc3[nH]2)c1=O (stereo not shown) [Compound 2218, 2-(3-((5-chloro-3H-imidazo[4,5-b]pyridin-2-yl)methyl)-5((2,4-dichlorophenyl)(hydroxy)methyl)-2-oxo-2,3-dihydro-1H-imidazol-1-yl)acetic acid]"
,,,> 1000 nM,1050 nM,,> 2000 nM,,,,"CCn1c(Cc2ccc(Cl)cc2Cl)cn(Cc2nc3c(ccc(Cl)[n+]3[O-])[nH]2)c1=O [Compound 2235, 1-({5-chloro-4-oxo-1H-4λ^5-imidazo[4,5-b]pyridin-2-yl}methyl)-4-[(2,4-dichlorophenyl)methyl]-3-ethyl-2,3-dihydro-1H-imidazol-2-one]"
,,,335 nM,1660 nM,,> 2000 nM,,,,"COC(=O)c1c(Cl)ccc2[nH]c(Cc3cn4c(-c5ccc(OC)cc5Cl)cccc4n3)nc12 [Compound 2236, methyl 5-chlor0-2-{[5-(2-chloro-4-methoxyphenyl)imidazo[1,2-a]pyridin-2-yl]methyl}-1H-1,3-benzodiazole-4-carboxylate]"
,,,> 1000 nM,546 nM,,> 2000 nM,,,,"COC(=O)c1c(Cl)ccc2[nH]c(Cn3cc(Cc4ccc(OC)cc4Cl)n(CC(C)(C)O)c3=O)nc12 [Compound 2237, methyl 5-chlor0-2-({4-[(2-chloro-4-methoxyphenyl)methyl]-3-(2-hydroxy-2-methylpropyl)-2-oxo-2,3-dihydro-1H-imidazol-1-yl}methyl)-1H-1,3-benzodiazole-4-carboxylate]"
,,,127 nM,174 nM,,> 2000 nM,,,,"COc1ccc(Cc2cn(Cc3nc4ncc(Cl)c(C)c4[nH]3)c(=O)n2CC(C)(C)O)c(Cl)c1 [Compound 2238, 4-[(2-chloro-4-methoxyphenyl)methyl]-1-({6-chloro-7-methyl-1H-imidazo[4,5-b]pyridin-2-yl}methyl)-3-(2-hydroxy-2-methylpropyl)-2,3-dihydro-1H-imidazol-2-one]"
96.9 nM,,,,,,753 nM,172 nM,1440 nM,,"COc1ccc(-c2cccn3c(=S)n(Cc4nc5nc(Cl)ccc5[nH]4)cc23)c(Cl)c1 [Compound 2243, 2-({5-chloro-1H-imidazo[4,5-b]pyridin-2-yl}methyl)-8-(2-chloro-4-methoxyphenyl)-2H,3H-imidazo[1,5-a]pyridine-3-thione]"
5.39 nM,0.415 µg/mL,,,< 0.91 nM,,188 nM,5.96 nM,193 nM,1.35 nM,"COc1ccc(Cc2cn(Cc3nc4nc(Cl)ccc4[nH]3)c(=O)n2CC(F)F)c(Cl)c1 [Compound 2258, 1-({5-chloro-1H-imidazo[4,5-b]pyridin-2-yl}methyl)-4-[(2-chloro-4-methoxyphenyl)methyl]-3-(2,2-difluoroethyl)-2,3-dihydro-1H-imidazol-2-one]"
214 nM,,,,,,340 nM,,561 nM,,"COc1ccc(Cc2cn(Cc3nc4c(F)c(F)ccc4[nH]3)c(=O)n2CC(F)F)c(Cl)c1 [Compound 2261, 4-[(2-chloro-4-methoxyphenyl)methyl]-1-[(6,7-difluoro-1H-1,3-benzodiazol-2-yl)methyl]-3-(2,2-difluoroethyl)-2,3-dihydro-1H-imidazol-2-one]"
325 nM,1.62 µg/mL,,,,,1840 nM,,,,"CC(=O)N1CCC(Cn2c(Cc3ccc(Cl)cc3Cl)cn(Cc3nc4nc(F)ccc4[nH]3)c2=O)C(F)(F)C1 (stereo not shown) [Compound 2265, 3-[(1-acetyl-3,3-difluoropiperidin-4-yl)methyl]-4-[(2,4-dichlorophenyl)methyl]-1-({5-fluoro-1H-imidazo[4,5-b]pyridin-2-yl}methyl)-2,3-dihydro-1H-imidazol-2-one]"
706 nM,,,,43.2 nM,,> 2000 nM,,,,"OCCOc1cc(-c2cccc3nc(Cc4nc5nc(Cl)ccc5[nH]4)cn23)c(Cl)cc1Cl [Compound 2270, 2-{2,4-dichloro-5-[2-({5-chloro-1H-imidazo[4,5-b]pyridin-2-yl}methyl)imidazo[1,2-a]pyridin-5-yl]phenoxy}ethan-1-ol]"
494 nM,,,,53.9 nM,,> 2000 nM,,,,"Clc1ccc2[nH]c(Cc3cn4c(-c5cc(OCCOC6CCCCO6)c(Cl)cc5Cl)cccc4n3)nc2n1 (stereo not shown) [Compound 2271, 2-({5-chloro-1H-imidazo[4,5-b]pyridin-2-yl}methyl)-5-{2,4-dichloro-5-[2-(oxan-2-yloxy)ethoxy]phenyl}-imidazo[1,2-a]pyridine]"
